For one experiment, the system named is IGIP mRNA. Nature of the experiment: Taqman RT-PCR relative quantification of steady state IGIP mRNA in PMA stimulated cell subsets. Format: cell-based, bovine. Conditions: 5 ng/ml PMA for 18 hours. The text has this:
Selective IgA deficiency (IgAD) is the most common primary immunodeficiency. […] To determine if abnormalities of IGIP production, function or cellular responsiveness to IGIP are altered in all or a subpopulation of patients with IgAD, a sampling approach is used to screen as many clinical and immunological types of adult subjects as possible for IGIP abnormalities. The relative contribution of PBMC-derived populations can be ranked based on quantitative PCR assessment of resting versus phorbol ester stimulated bovine cells; DC>B cells>T cells>monocytes (see Table VI below).
On the technique in general: In qPCR the cycle at which signal appears reflects the starting amount.

In a further experiment the test system is sIgD+ B cells. Put plainly: Bioassay for IGIP activity on naive human B cells (CD40L, IL-2, with or without IL-10; ELISA day 14). Format: cell-based. On the procedure: Total PBMC's were isolated from normal healthy donors via gradient centrifugation and labeled with biotinylated mouse monoclonal antibody (mAB) to human IgD. Pure sIgD^+ B cells were then isolated with Streptavidin-coated Microbeads using an AutoMACS magnetic cell sorter.
Enriched sIgD^+ B cells were cultured in RPM1 1640 (supplemented with 10% FBS, 2 mM L-glutamine, 100 U/ml penicillin and 100 μg/ml streptomycin) at 0.8-1.0×10^5 cells/well in 96-well plates. B cells were co-cultured at a 4:1 ratio with mitomycin C treated DAP3 cells stably transfected with CD40L and 50 ng/ml IL-2, with or without 50 ng/ml IL-10. Cell cultures were then stimulated with 0.1, 1.0 or 10 ng/ml IGIP, 1.0 ng/ml TGF-β, or left unstimulated. Culture supernatants were assayed for secreted immunoglobulins (IgM, IgG, and IgA) by ELISA on day 14.
(ELISA stands for enzyme-linked immunosorbent assay.)

A further experiment deals with peripheral blood B cells. Put plainly: Bovine B cell bioassay (CD40L-DAP3 cells + IL-2, 7 days) with ELISA for secreted IgA, IgM, IgG. The experiment is classed as cell-based.
Setting [1] is: in the presence of IL-10, CD40L + IL-2, IGIP 0.1 to 10 ng/ml, TGF-β 1 ng/ml, 14 days.

Entries after “also recorded” stand apart in the source; their conditions may differ.

Experimental for peripheral blood B cells: Peripheral blood mononuclear cells (PBMCs) were isolated from the peripheral blood of 6-12 month old Holstein or Angus heifers or steers by incubating 30 ml of red cell lysis buffer (0.15 NH4Cl, 10 mM KHCO3, 1 mM EDTA, H2O) with 20 ml of blood for 20 minutes at room temperature. During this incubation, carbonyl iron (0.1 μg/ml) was added to the blood mixture for 20 minutes and then exposed to a magnetic field for 2 minutes to remove phagocytic cells. Following incubation, the cells were washed 3 times with Hank's buffered salt solution (HBSS). B lymphocytes were enriched by panning in the presence of 3% bovine serum albumin (BSA, Fraction V, Sigma, St. Louis, Mo.) in HBSS as described in Severson et al. (1987). Briefly, PBMCs were resuspended at a concentration of 1×10^7 cells/ml in panning solution (3% BSA, 10 mM Tris, 50 μg/ml gentamicin, 0.0025 mM CaCl2, and 0.002 mM MgCl2 in HBSS) and allowed to adhere to plastic tissue culture plates for 1 hour. Non-adherent cells were removed by washing twice with HBSS and adherent cells (enriched B cells) were harvested by vigorous pipetting. 1×10^5 B cells and 2×10^4 mitomycin C treated CD40L-DAP3 transfected cells were cultured for 7 days in 96-well plates in 2001 μl final volume complete medium (RPMI 1640) and 10% immunoglobulin free normal horse serum with 1 ng/ml recombinant huIL-2 (Peppro Tech Inc., Rocky Hill, N.J.) and 10% culture supernatant from cells transfected with library plasmids. Where indicated, pre-committed B cells and residual T cells were depleted by incubating panned B cells for 30 minutes on ice with 30 μl each of mouse anti-bovine IGA (Serotec, Raleigh, N.C.), mouse anti-bovine IgG1 (Serotec), mouse anti-bovine IgG2 (Serotec), and MM1A (anti-CD3 antibody, VMRD, Pullman, Wash.). The cells were washed 3 times with HBSS and sheep anti-mouse IgG Dynabeads (Dynal, Oslow, Norway) were added according to the manufacturer's instructions. The B cells were then placed in a magnetic field and the non-adherent cells removed. These cells were next incubated on ice for 30 minutes with biotinylated goat anti-bovine IgM (Kirkegard and Perry (KPL), Gaithersburg, Md.), washed 3 times and streptavidin beads (Dynal) were added according to the manufacturer's instructions. The cells were placed on a magnetic field and the adherent cells (IgM^+ B cells) were harvested. All bioassays were performed in triplicate in 96-well Corning flat bottom plates.
Other reagents used in these studies were goat anti-bovine IgM (5 μg/ml, KPL) and porcine TGF-β (1 ng/ml, R & D Systems, Minneapolis, Minn.) that had been acid-activated according to the manufacturer's instructions. […]

For the compound `CCCCCCCCCCCCCC(=O)O[C@@H]1[C@@H](C)[C@@]2(O)[C@@H](C=C(CO)C[C@]3(O)C(=O)C(C)=C[C@@H]23)[C@@H]2C(C)(C)[C@]12OC(C)=O` [PMA, phorbol myristic acetate], the “IGIP mRNA fold increase, stimulated vs unstimulated” value stood at 2.03 fold in the experiment on IGIP mRNA (CD3+ cells), 0.64 fold in the experiment with IGIP mRNA (CD14+ cells), 7.6 fold with IGIP mRNA (CD21+ cells) and 7205 fold in the experiment on IGIP mRNA (DC). The “IGIP mRNA, relative quantification, stimulated cells” value in the experiment on IGIP mRNA (CD3+ cells) is recorded as 4.79 × 10^−5; in the experiment with IGIP mRNA (CD14+ cells), 1.00 × 10^−5; in the experiment on IGIP mRNA (CD21+ cells), 3.65 × 10^−4; in the experiment on IGIP mRNA (DC) it was 0.263.

For the compound “IGIP: human homolog of IGIP, 0.1 to 10 ng/ml on naive human IgD+ B cells (Example III) (MKKRSVSGCNITIFAVMFSHLSAGKSPCGNQANVLCISRLEFVQYQS)”, the “IgA production by naive IgD+ B cells (in words)” value in the experiment on sIgD+ B cells (IL-10, CD40L dependent, B-cell-receptor independent) was “enhanced IgA production”. Besides, the “number of IgA producing cells compared with TGF-β” value with sIgD+ B cells (in the presence of IL-10) is “greater number of IgA producing cells”. Moreover, in the experiment with sIgD+ B cells (setting [1]), the “IgA production, level relative to TGF-β” value was 4-6 fold; the “IgG production, level relative to TGF-β” value is recorded as 4-6 fold; the “IgM production, level relative to TGF-β” value is reported as 4-6 fold.

As to “TGF-β: porcine TGF-β (1 ng/ml, R & D Systems), acid-activated”, the “effect on IgA production (in words)” value in the experiment on peripheral blood B cells (B cells stimulated via CD40L + IL-2 (CD40 alone)) is “less IgA production; also recorded: decreased IgA production”; in the experiment on peripheral blood B cells (B cells stimulated via CD40 and anti-IgM (BCR)), “induced IgA production”. For the same compound, in the experiment with peripheral blood B cells (Table IV experiment 2, dual stimulation CD40 and BCR), the “IgA production over that of B cells stimulated via CD40L + anti-IgM + IL-2 alone” value came out at 10 fold.

Values taken from patent US7638284B2, “Immunoglobulin A inducing protein and uses therefor” (The Curators of the University of Missouri, priority 2000, dated 2009).
